Laboratory results published in the supplement of paper PMC10307832.

Columns and labels:
Assay in all cases: relative viability (nuclei count vs DMSO), 5 days (fraction); higher = more cells survive
Avagacestat + Luminespib = compound: NC(=O)[C@@H](CCC(F)(F)F)N(Cc1ccc(-c2ncon2)cc1F)S(=O)(=O)c1ccc(Cl)cc1 [Avagacestat] + CCNC(=O)c1noc(-c2cc(C(C)C)c(O)cc2O)c1-c1ccc(CN2CCOCC2)cc1 [Luminespib] (partner 0.01 µM)
Summary of the method: (§1)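 Nuclei were stained with Hoechst during a one-step fixation (final 0.05% Triton X-100, 1% formaldehyde, 1 ug/ml Hoechst) carried out 5 days after dosing, then counted on 4× images. The cells, lung cancer lines in 1536-well plates, had been dosed by pin tool the day after seeding with one drug alone or a fixed anchor-drug dose plus five library-drug doses (not always all listed) in √10 steps. Relative viability is the nuclei count in treated wells divided by that in vehicle wells, and each value is the median of duplicate plates.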

Avagacestat + OSI-027 = compound: NC(=O)[C@@H](CCC(F)(F)F)N(Cc1ccc(-c2ncon2)cc1F)S(=O)(=O)c1ccc(Cl)cc1 [Avagacestat] + COc1cccc2cc(-c3nc([C@H]4CC[C@H](C(=O)O)CC4)n4ncnc(N)c34)[nH]c12 [OSI-027] (partner 0.5 µM)
Summary of the method: as §1

Avagacestat + Lapatinib = compound: NC(=O)[C@@H](CCC(F)(F)F)N(Cc1ccc(-c2ncon2)cc1F)S(=O)(=O)c1ccc(Cl)cc1 [Avagacestat] + CS(=O)(=O)CCNCc1ccc(-c2ccc3ncnc(Nc4ccc(OCc5cccc(F)c5)c(Cl)c4)c3c2)o1 [Lapatinib] (partner 2 µM)
Summary of the method: as §1

Avagacestat + Linsitinib = compound: NC(=O)[C@@H](CCC(F)(F)F)N(Cc1ccc(-c2ncon2)cc1F)S(=O)(=O)c1ccc(Cl)cc1 [Avagacestat] + C[C@]1(O)C[C@@H](c2nc(-c3ccc4ccc(-c5ccccc5)nc4c3)c3c(N)nccn32)C1 [Linsitinib] (partner 1 µM)
Summary of the method: as §1

Cell Line | relative viability (Avagacestat + Luminespib; first compound 0.08 µM) | relative viability (Avagacestat + Luminespib; first compound 0.253 µM) | relative viability (Avagacestat + Luminespib; first compound 0.8 µM) | relative viability (Avagacestat + Luminespib; first compound 2.53 µM) | relative viability (Avagacestat + Luminespib; first compound 8 µM) | relative viability (Avagacestat + OSI-027; first compound 0.08 µM) | relative viability (Avagacestat + OSI-027; first compound 0.253 µM) | relative viability (Avagacestat + OSI-027; first compound 0.8 µM) | relative viability (Avagacestat + OSI-027; first compound 2.53 µM) | relative viability (Avagacestat + OSI-027; first compound 8 µM) | relative viability (Avagacestat + Lapatinib; first compound 0.08 µM) | relative viability (Avagacestat + Lapatinib; first compound 0.253 µM) | relative viability (Avagacestat + Lapatinib; first compound 0.8 µM) | relative viability (Avagacestat + Lapatinib; first compound 2.53 µM) | relative viability (Avagacestat + Lapatinib; first compound 8 µM) | relative viability (Avagacestat + Linsitinib; first compound 0.08 µM) | relative viability (Avagacestat + Linsitinib; first compound 0.253 µM) | relative viability (Avagacestat + Linsitinib; first compound 0.8 µM) | relative viability (Avagacestat + Linsitinib; first compound 2.53 µM) | relative viability (Avagacestat + Linsitinib; first compound 8 µM)
H3255 | 1.02 | 0.951 | 0.941 | 1.05 | 0.847 | 0.642 | 0.74 | 0.828 | 0.625 | 0.621 | 0.262 | 0.259 | 0.3 | 0.244 | 0.276 | 1.02 | 1.17 | 0.975 | 0.899 | 0.898
EPLC-272H | 0.21 | 0.267 | 0.139 | 0.153 | 0.304 | 0.274 | 0.259 | 0.326 | 0.226 | 0.28 | 1.1 | 0.963 | 0.883 | 1.15 | 0.997 | 1.4 | 1.2 | 1.4 | 1.32 | 0.933
SK-LU-1 | 0.223 | 0.189 | 0.218 | 0.201 | 0.225 | 0.379 | 0.307 | 0.297 | 0.29 | 0.248 | 0.956 | 0.852 | 0.889 |  | 0.73 | 1.13 | 1.3 | 1.02 | 0.918 | 0.983
NCI-H1793 | 0.145 | 0.176 | 0.157 | 0.198 | 0.172 | 0.327 | 0.338 | 0.373 | 0.233 | 0.249 | 1.13 | 0.648 | 1.08 | 0.627 | 0.769 | 1.01 | 0.926 | 1.02 | 0.913 | 0.657
EKVX | 0.798 | 0.973 | 0.859 | 0.809 | 0.751 | 0.675 | 0.687 | 0.72 | 0.461 | 0.659 | 0.227 | 0.208 | 0.226 | 0.186 | 0.184 | 1.22 | 0.996 | 1.25 | 0.847 | 0.703
ChaGo-K-1 | 0.551 | 0.718 | 0.747 | 0.551 | 0.595 | 0.659 | 0.655 | 0.6 | 0.456 | 0.451 |  |  |  |  |  |  |  |  |  | 
NCI-H2347 | 0.633 | 0.379 | 0.608 | 0.512 | 0.311 | 0.506 | 0.352 | 0.398 | 0.366 | 0.369 | 0.997 | 0.966 | 1.04 | 0.923 | 0.909 | 1.04 | 0.989 | 1.02 | 0.943 | 0.897
EMC-BAC-2 | 1.33 | 1.4 | 1.29 | 1.12 | 1.1 | 0.364 | 0.445 | 0.429 | 0.396 | 0.364 | 0.978 | 0.956 | 1.02 | 0.954 | 0.841 | 0.882 | 0.953 | 0.84 | 0.738 | 0.784
LU99A | 0.308 | 0.199 | 0.305 | 0.247 | 0.213 | 0.285 | 0.28 | 0.278 | 0.286 | 0.266 | 1.01 | 1.2 | 1.25 | 1.06 | 1.1 | 0.598 | 0.561 | 0.63 | 0.563 | 0.644
LXF-289 | 0.794 | 0.675 | 0.912 | 0.686 | 0.603 | 0.817 | 0.757 | 0.703 | 0.673 | 0.804 | 0.895 | 0.921 | 0.886 | 0.892 | 0.814 | 1.02 | 1.02 | 0.957 | 1.02 | 0.82
NCI-H1395 | 0.806 | 0.836 | 0.567 | 0.799 | 0.662 | 0.631 | 0.633 | 0.634 | 0.588 | 0.626 | 0.981 | 1.08 | 0.94 | 1.17 | 0.79 | 1.11 | 1.1 | 1.04 | 0.869 | 0.881
NCI-H596 | 1.19 | 0.876 | 1.35 | 0.924 | 0.756 | 0.81 | 0.814 | 0.688 | 0.734 | 0.593 | 1.09 | 1.03 | 1.15 | 1.11 | 0.944 | 1.15 | 1.21 | 1 | 0.827 | 0.986
201T | 1.11 | 1.05 | 1 | 0.964 | 1.04 | 0.803 | 0.988 | 0.942 | 0.529 | 0.76 | 1.04 | 1.06 | 1.12 | 0.995 | 1.01 | 1.02 | 1.07 | 1.13 | 0.985 | 0.99
NCI-H1944 | 0.731 | 0.941 | 0.591 | 0.515 | 0.599 | 0.394 | 0.501 | 0.404 | 0.343 | 0.38 | 0.714 | 0.937 | 0.77 | 0.669 | 0.756 | 1.28 | 1.15 | 1.47 | 1.04 | 1.01
NCI-H3122 | 0.0934 | 0.101 | 0.074 | 0.0983 | 0.11 | 1.09 | 1.24 | 1.21 |  | 1.07 | 1.1 | 1.1 | 1.03 | 1.05 | 0.99 | 1.05 | 1.02 | 0.989 | 1.01 | 1
NCI-H1734 | 0.219 | 0.179 | 0.212 | 0.202 | 0.175 | 0.612 | 0.713 | 0.643 | 0.552 | 0.515 | 1.52 | 1.26 | 1.11 | 1.07 | 1.07 | 1.2 | 0.924 | 0.946 | 0.819 | 0.782
NCI-H1792 | 0.649 | 0.478 | 0.522 | 0.414 | 0.33 | 1.03 |  | 0.628 |  | 0.677 | 1.26 | 0.681 | 1.76 | 0.915 | 0.758 | 0.648 | 0.424 | 0.692 | 0.383 | 0.368
